Reference: patent publication US20060194698A1, “Use of herbs as a delivery system for bioactive phytochemicals” (priority 2003, published 2006)

Experiments:
Alternaria = assay: Essential oil components against Alternaria growth (saturated cotton swab suspended above culture); format: cell-based; details: pure essential oil component
Description: Antifungal activity of the essential oil components against Rhizoctonia and Pythium will be tested by means previously used to evaluate Alternaria growth. Briefly, a cotton swab saturated with the oil is suspended above a culture of the test pathogen. Fungal dry weight is then determined. Appropriate controls are performed.

Sclerotinia = assay: Essential oil components / ground herbage against Sclerotinia and its sclerotia; format: cell-based; details: pure essential oil component

Structure (SMILES)	growth of Alternaria (Alternaria)	activity against the sclerotia of Sclerotinia (Sclerotinia)	growth of Sclerotinia (Sclerotinia)
Cc1ccc(C(C)C)cc1O [carvacrol]	completely inhibit growth	inhibitory activity	completely inhibit growth
C=C(C)[C@H]1CC=C(C)CC1 [limonene]	inhibit the growth of Alternaria, but not as effectively as cymene		
CC(C)=CCC/C(C)=C/CO [geraniol]	completely inhibit growth	inhibitory activity	completely inhibit growth
Cc1ccc(C(C)C)cc1 [cymene, p-cymene]	reduce the growth		
Cc1ccc(C(C)C)c(O)c1 [thymol]	completely inhibit growth	inhibitory activity	completely inhibit growth
